Holding throughout (format): binding
Experiment [1] deals with T1, CBM9.3 (CkCBM9.3, third CBM9 domain of CkXyn10C-GE15A) (Caldicellulosiruptor acetigenus, UniProt E4S6E9).
T1 construct: gene Calkr_2245; isolated CBM9.3 domain (Lys1072-Leu1252) plus C-terminal linker Lys1253-Pro1265; N-terminal His6 tag and TEV site (not seen in density); E. coli BL21(DE3), pET28a-TEVc; full-length protein 2159 residues
The experiment in a line: DSF (Tycho NT.[…]). Particulars: 100000 µM; 0.5 mg/mL protein, 50 mM Tris pH 8, 100 mM NaCl; 100 mM ligand; no-ligand control Ti 61.0 ± 0.88 °C.

Experiment [2] concerns the target T1, CBM9.3 (CkCBM9.3, third CBM9 domain of CkXyn10C-GE15A). Kind of experiment: X-ray crystallography (soak […], […] min). To be noted: crystal at pH 4.2; aromatic clamp Tyr89/Trp191.
Experiment [3] has as its target T2, CkGE15A (GE15A, glucuronoyl esterase domain of CkXyn10C-GE15A) (Caldicellulosiruptor acetigenus, UniProt E4S6E9).
T2 construct: gene Calkr_2245; isolated CE15 domain (entire GE domain Thr1341-Arg1685 seen in structure); E. coli BL21(DE3), pET28a-TEVc; full-length protein 2159 residues
The experiment in a line: DSF (Tycho NT.[…]). To be noted: 10000 µM; 0.5 mg/mL protein, 50 mM MOPS pH 7.2; second inflection point; no-ligand control Ti2 81.3 ± 0.37 °C.

T1 sequence (E4S6E9 entry or part of it): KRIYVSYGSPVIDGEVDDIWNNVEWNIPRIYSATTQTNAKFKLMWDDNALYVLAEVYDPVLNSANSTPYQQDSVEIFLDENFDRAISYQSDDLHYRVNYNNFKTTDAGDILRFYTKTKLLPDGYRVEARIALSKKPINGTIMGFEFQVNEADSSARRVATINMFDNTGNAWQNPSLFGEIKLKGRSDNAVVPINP
T2 sequence (E4S6E9 entry or part of it): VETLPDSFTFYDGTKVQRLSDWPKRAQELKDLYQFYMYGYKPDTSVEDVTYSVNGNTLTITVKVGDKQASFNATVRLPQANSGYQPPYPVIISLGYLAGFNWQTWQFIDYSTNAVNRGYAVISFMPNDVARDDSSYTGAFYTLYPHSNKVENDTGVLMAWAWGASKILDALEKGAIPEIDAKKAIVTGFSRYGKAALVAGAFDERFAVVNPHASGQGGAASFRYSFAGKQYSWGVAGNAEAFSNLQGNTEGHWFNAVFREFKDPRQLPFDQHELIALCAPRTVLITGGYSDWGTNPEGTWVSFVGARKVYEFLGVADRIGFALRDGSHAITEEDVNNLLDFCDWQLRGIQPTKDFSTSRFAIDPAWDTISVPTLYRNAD

In the case of `OC[C@H]1OC(O)[C@H](O)[C@@H](O)[C@@H]1O` (stereo partly shown) [glucose], in experiment [1], the “Ti (°C) ± SD” value is 66.7 ± 0.195 °C. Moreover, the “X-ray crystallography (soak 500 mM, 5 min)” value in experiment [2] is “we obtained structures with bound glucose and cellobiose and also with cellotriose”.

In the case of aldopentauronic acid, the “Ti2 (°C) ± SD” value in experiment [3] was determined as 79.2 ± 0.49 °C.

Consider `O=C(OCc1ccccc1)[C@H]1OC(O)[C@H](O)[C@@H](O)[C@@H]1O` (stereo partly shown) [benzylglucuronate], for which, in experiment [3], the “Ti2 (°C) ± SD” value was 79.3 ± 0.49 °C.

The values are drawn from paper PMC8280721, “Structural and Functional Analysis of a Multimodular Hyperthermostable Xylanase-Glucuronoyl Esterase from Caldicellulosiruptor kristjansonii” (Biochemistry, 2021).
